From patent publication US12076304B2, “Compositions comprising 15-HEPE and methods of treating or preventing hematologic disorders, and/or related diseases” (priority 2020, dated 2024)

Legend:
UUO mice = test: UUO mice: body weight, kidney weight, general condition; assay type: in vivo; conditions: n = 8
Protocol: UUO Surgery: On day 0 of the study, UUO surgery was performed on mice under pentobarbital sodium anesthesia. The mouse's hair was first shaved and then abdomen cut open to exteriorize the mouse's left ureter. The ureter was ligated 4-0 nylon sutures at two points. The mouse's peritoneum and skin were then closed with sutures, and the mouse transferred to a clean cage until recovered from the anesthesia. Sham operated mice had their left ureter exposed but not ligated. […]
Animals: Seven-week-old female C57BL/6 mice (i.e., animals) were obtained from Japan SLC, Inc. (Japan) and were housed and fed with a normal diet (CE-2; CLEA Japan, Japan) under controlled conditions. The animals were maintained in a specific-pathogen free (SPF) facility under controlled conditions of temperature (e.g., 23±2° C.), humidity (e.g., 45±10%), lighting (e.g., 12-hour artificial light and dark cycles; light from 8:00 to 20:00) and air exchange. A high pressure was maintained in the experimental room to prevent contamination of the facility. The animals were housed in TPX cages (CLEA Japan) with a maximum of 4 mice per cage. Sterilized Paper-Clean (Japan SLC) was used for bedding and replaced once a week. Sterilized solid normal diet was provided ad libitum, being placed in a metal lid on the top of the cage. Pure water was also provided ad libitum from a water bottle equipped with a rubber stopper and a sipper tube. Water bottles were replaced once a week, cleaned, and sterilized in an autoclave and reused. Mice were identified by ear punch and each cage was labeled with a specific identification code.
Animal Monitoring and Sacrifice: The viability, clinical signs and behavior for the mice were monitored daily. Individual body weight was measured daily before treatment during the treatment period. […] The animals were sacrificed by exsanguination through direct cardiac puncture under isoflurane anesthesia (Pfizer Inc.) at Day 14.

NAFLD patients [1] = test: Phase IIa study in NAFLD patients: lipid profile and lipidomics; assay type: in vivo, human; conditions: for Triglycerides (median placebo-corrected % change from baseline): 2 g
Protocol: (§1) The study was planned to include 96 evaluable patients with 32 patients randomized per treatment group.
Clinical Laboratory Safety Tests: Safety tests were performed for hematology, serum biochemistry, coagulation, lipid profile, and urinalysis: Blood and urine samples were taken as per the Study Flow Chart in Table 19 for routine hematology, serum biochemistry, coagulation and urinalysis tests, along with a Lipid Profile. All samples were analyzed in the central laboratory. All subjects were fasted for a minimum of 8 hours prior to blood sampling. If subjects had not fasted for a minimum of 8 hours, the duration of fasting time was recorded, and subjects encouraged to fast appropriately for the next clinical visit. • Hematology: Full blood count to include red cell count, hemoglobin, hematocrit, white cell count, differential white cell count, platelet count and reticulocyte count. • Serum biochemistry: Urea (blood urea nitrogen; BUN), creatinine, uric acid, total bilirubin, Indirect and Direct Bilirubin, sodium, bicarbonate potassium, phosphorus, calcium chloride, alkaline phosphatase (ALP), aspartate aminotransferase (AST), alanine aminotransferase (ALT), ALT/AST ratio, lactate dehydrogenase (LDH), creatine phosphokinase (CPK), albumin, total protein, cholesterol, triglycerides, glucose, C-reactive protein (CRP). • Coagulation: prothrombin time (PT), international normalized ratio (INR) and activated partial […]. • Lipid Profile: LDL, HDL, and VLDL-C. • Urinalysis: pH, protein, glucose, blood, ketones, leukocytes, leukocyte esterase, bilirubin, specific gravity, urobilinogen and nitrate. Reflex micro if blood, protein, leukocyte esterase or nitrate/nitrite are present.
Exploratory analysis: The exploratory analysis included analysis of lipid and metabolic parameters including total cholesterol, triglycerides, very low-density lipoprotein cholesterol (VLDL-C), low density lipoprotein cholesterol (LDL-C), high density lipoprotein cholesterol (HDL-C), non-high-density lipoprotein cholesterol (non-HDL-C), remnant-like particle cholesterol (RLP-C), fasting glucose, insulin, free fatty acids and hemoglobin A1C (HbA1C). Additional exploratory analysis included high throughput lipidomics and proteomics.

NAFLD patients [2] = test: Phase IIa study in NAFLD patients: OWL liver care test; assay type: in vivo, human
From the text: as §1
OWL Liver Care is a test that was developed based on the plasma lipidomics in biopsy-confirmed NASH patients and provides high predictive values. OWL Liver Care has an area under the curve (AUC) of 0.88 for distinguishing NAFLD and normal liver patients and an AUC of 0.79 for distinguishing NAFLD without steatohepatitis and NASH patients.

NAFLD patients [3] = test: Phase IIa study in NAFLD patients: hepatic fat by CAP; assay type: in vivo, human; conditions: 16 weeks
Protocol: as §1
Liver stiffness and CAP: Liver stiffness and CAP were assessed using transient elastography (e.g., FibroScan® 502 Touch model or equivalent). Patients were fasted and scanned at the same time of the day, if possible, for baseline (Week 0) and Visit 10 (Week 16). For this assessment the following conditions were met: patients were lying in dorsal decubitus position with the right arm in maximal abduction behind the head, in a similar position to that used for liver biopsy (LB); the tip of the transducer was placed on the skin between the ribs over the right lobe of the liver (the physician took the measurements with the probe placed in the intercostal space); during the FibroScan® examination the choice of M+ or XL+ probe was determined by the Automatic Probe Selection tool (APS) (If, the APS tool advises to use the “XL+probe” or “switch” continuously between “M+ and XL+ probe”, only the XL+ probe was used); and the operator, assisted by an ultrasonic time motion image, located a portion of the liver which is free of large vascular structures (the depth of measurement was between 35-75 mm for the XL+ probe and 25-65 mm for the M+ probe and the explored volume will be 3 cm^3). […] The final stiffness and CAP values was recorded as median values of valid measurements.

[4] = 5 mg/kg PO QD Day 0-13, Day 14, mean ± SD
[5] = 50 mg/kg PO QD Day 0-13, Day 14, mean ± SD
[6] = 250 mg/kg PO QD Day 0-13, Day 14, mean ± SD
[7] = 500 mg/kg PO QD Day 0-13, Day 14, mean ± SD
[8] = 1 g per day, baseline diagnosis NASH (19 at baseline)
[9] = 1 g per day, baseline diagnosis No NAFLD (4 at baseline)
[10] = 1 g per day, baseline diagnosis Steatosis (5 at baseline)
[11] = 2 g per day, baseline diagnosis NASH (12 at baseline)
[12] = 2 g per day, baseline diagnosis No NAFLD (3 at baseline)
[13] = 2 g per day, baseline diagnosis Steatosis (14 at baseline)

CCCCCC(O)/C=C/C=C\C/C=C\CCCCCCC(=O)O (centres unmarked) [DS109, 15-HETrE]
Body Weight (UUO mice; [4]): 19.1 ± 0.9 g
Left Kidney Weight (UUO mice; [4]): 533 ± 138 mg
Left Kidney-to-Body Weight Ratio (UUO mice; [4]): 2.79 ± 0.65%
Right Kidney Weight (UUO mice; [4]): 137 ± 7 mg
Right Kidney-to-Body Weight Ratio (UUO mice; [4]): 0.71 ± 0.04%
Body Weight (UUO mice; [5]): 18.6 ± 0.6 g
Left Kidney Weight (UUO mice; [5]): 523 ± 91 mg
Left Kidney-to-Body Weight Ratio (UUO mice; [5]): 2.83 ± 0.50%
Right Kidney Weight (UUO mice; [5]): 135 ± 6 mg
Right Kidney-to-Body Weight Ratio (UUO mice; [5]): 0.73 ± 0.05%
Body Weight (UUO mice; [6]): 18.6 ± 0.7 g
Left Kidney Weight (UUO mice; [6]): 425 ± 105 mg
Left Kidney-to-Body Weight Ratio (UUO mice; [6]): 2.26 ± 0.53%
Right Kidney Weight (UUO mice; [6]): 130 ± 13 mg
Right Kidney-to-Body Weight Ratio (UUO mice; [6]): 0.70 ± 0.05%

15-HEPE [DS102]
Left Kidney Weight (UUO mice; [5]): 469 ± 60 mg
Right Kidney Weight (UUO mice; [5]): 133 ± 10 mg
Left Kidney Weight (UUO mice; [7]): 487 ± 108 mg
Right Kidney Weight (UUO mice; [7]): 136 ± 6 mg
Triglycerides (median placebo-corrected % change from baseline) (NAFLD patients [1]; Week 16, Full Analysis Set): −40.2%
Triglycerides (median placebo-corrected % change from baseline) (NAFLD patients [1]; Week 16, Subgroup: High Triglycerides (>200 mg/dL)): −20.4%
Triglycerides (median placebo-corrected % change from baseline) (NAFLD patients [1]; Week 16, Subgroup: Triglycerides > Upper Limit Normal (>150 mg/dL)): −39.0%
levels of multiple glycerophospholipid groups (NAFLD patients [1]; NAFLD patients, 2 g per day): significantly increased
levels of multiple hepatotoxic diglycerides (NAFLD patients [1]; NAFLD patients, 2 g per day): significantly decreased
triglyceride levels (NAFLD patients [1]; NAFLD patients, Week 16): lowered
lipid profile (total cholesterol, VLDL-C, non-HDL-C, RLP cholesterol, triglycerides) (NAFLD patients [1]; NAFLD patients, Week 16, safety analysis set): significantly improved
OWL test Change in Diagnosis (Week 16 vs. baseline): Improvement, patients (NAFLD patients [2]; [8]): 5
OWL test Change in Diagnosis (Week 16 vs. baseline): Stable, patients (NAFLD patients [2]; [8]): 14
OWL test Change in Diagnosis (Week 16 vs. baseline): Stable, patients (NAFLD patients [2]; [9]): 3
OWL test Change in Diagnosis (Week 16 vs. baseline): Worsening, patients (NAFLD patients [2]; [9]): 1
OWL test Change in Diagnosis (Week 16 vs. baseline): Stable, patients (NAFLD patients [2]; [10]): 2
OWL test Change in Diagnosis (Week 16 vs. baseline): Worsening, patients (NAFLD patients [2]; [10]): 3
OWL test Change in Diagnosis (Week 16 vs. baseline): Improvement, patients (NAFLD patients [2]; [11]): 5
OWL test Change in Diagnosis (Week 16 vs. baseline): Stable, patients (NAFLD patients [2]; [11]): 7
OWL test Change in Diagnosis (Week 16 vs. baseline): Stable, patients (NAFLD patients [2]; [12]): 2*, **
OWL test Change in Diagnosis (Week 16 vs. baseline): Worsening, patients (NAFLD patients [2]; [12]): 1
OWL test Change in Diagnosis (Week 16 vs. baseline): Improvement, patients (NAFLD patients [2]; [13]): 1
OWL test Change in Diagnosis (Week 16 vs. baseline): Stable, patients (NAFLD patients [2]; [13]): 9
OWL test Change in Diagnosis (Week 16 vs. baseline): Worsening, patients (NAFLD patients [2]; [13]): 4
OWL liver care diagnosed NASH (NAFLD patients [2]; NAFLD patients, dose dependent, vs placebo at Week 16): significantly improved and normalized
hepatic fat content as assessed by CAP (NAFLD patients [3]): reduced
